This experiment deals with P388 leukemia ip, CD2F1 mice, survival T/C. In words: NCI In Vivo Anticancer Drug Screen. Data for tumor model P388 Leukemia (intraperitoneal) in CD2F1 (CDF1) mice. As to conditions: endpoint: median survival time, higher = longer survival. Put shortly: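 Mice carrying the transplanted tumor received test compound or vehicle. Survival was recorded in each group, and the value is the treated-group measurement divided by that of the vehicle-treated control group.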

The mark [1] stands for this setting: dose: 50.0 mg/kg/injection, schedule: Q01DX005 (ip), vehicle: saline.
The mark [2] stands for this setting: dose: 100.0 mg/kg/injection, schedule: Q01DX005 (ip), vehicle: saline.
Where [3] appears, read: dose: 200.0 mg/kg/injection, schedule: Q01DX005 (ip), vehicle: saline.
Where [4] appears, read: dose: 50.0 mg/kg/injection, schedule: Q01DX005 (ip), vehicle: saline with Tween-80.
[5] abbreviates: dose: 100.0 mg/kg/injection, schedule: Q01DX005 (ip), vehicle: saline with Tween-80.
Setting [6] is: dose: 200.0 mg/kg/injection, schedule: Q01DX005 (ip), vehicle: saline with Tween-80.
Setting [7] is: dose: 50.0 mg/kg/injection, schedule: Q01DX009 (ip), vehicle: saline.
Setting [8] is: dose: 100.0 mg/kg/injection, schedule: Q01DX009 (ip), vehicle: saline.
Where [9] appears, read: dose: 200.0 mg/kg/injection, schedule: Q01DX009 (ip), vehicle: saline.
Setting [10] is: dose: 100.0 mg/kg/injection, schedule: Q04DX002 (ip), vehicle: saline with Tween-80.
The mark [11] stands for this setting: dose: 50.0 mg/kg/injection, schedule: Q01DX005 (ip), vehicle: Klucel (hydroxypropylcellulose) (HPC).
Setting [12] is: dose: 100.0 mg/kg/injection, schedule: Q01DX005 (ip), vehicle: Klucel (hydroxypropylcellulose) (HPC).
Setting [13] is: dose: 50.0 mg/kg/injection, schedule: Q01DX009 (ip), vehicle: saline with Tween-80.
[14] abbreviates: dose: 100.0 mg/kg/injection, schedule: Q01DX009 (ip), vehicle: saline with Tween-80.
Where [15] appears, read: dose: 200.0 mg/kg/injection, schedule: Q01DX009 (ip), vehicle: saline with Tween-80.
Where [16] appears, read: dose: 100.0 mg/kg/injection, schedule: Q04DX003 (ip), vehicle: saline with Tween-80.
The mark [17] stands for this setting: dose: 200.0 mg/kg/injection, schedule: Q04DX003 (ip), vehicle: saline with Tween-80.
Setting [18] is: dose: 60.0 mg/kg/injection, schedule: Q01DX005 (ip), vehicle: saline with Tween-80.
[19] abbreviates: dose: 120.0 mg/kg/injection, schedule: Q01DX005 (ip), vehicle: saline with Tween-80.
[20] abbreviates: dose: 240.0 mg/kg/injection, schedule: Q01DX005 (ip), vehicle: saline with Tween-80.

Values joined by “and” are separate entries in the source; they are usually repeats but may differ in a detail not shown here. Identical values can stand only once. Inconclusive results and toxic doses are left out.

On to `NC(CSS(=O)(=O)O)C(=O)O` (configuration not stated), for which the T/C was 101 % of control under setting [1], 106 % of control under setting [2] and 101 % of control under setting [3].
Turning to `O=C(N1CCCCC(Cl)(Cl)C1=O)C(Cl)(Cl)Cl`, the T/C under setting [4] was 106 % of control and the T/C under setting [5] was 103 % of control.
As to `CCCCCc1cc(O)cc2c1Oc1cc(O)cc(C(=O)CCCC)c1C(=O)O2`, the T/C runs as follows: under setting [4], 98 % of control; under setting [5], 100 % of control; under setting [6], 107 % of control.
For `O=C1c2ccccc2-n2c1nc1ccccc1c2=O` the same measures were 102 % of control, 100 % of control and 107 % of control.
Turning to `CN1CNC(=S)NC1`, the T/C was 105 % of control under setting [7], 102 % of control under setting [8] and 101 % of control under setting [9].
Consider `Cc1ccc(C)c(S(=O)(=O)Nc2c([N+](=O)[O-])cc([N+](=O)[O-])c3ccccc23)c1`, for which the T/C is 95 % of control (dose: 50.0 mg/kg/injection, schedule: Q04DX002 (ip), vehicle: saline with Tween-80) and 88 % of control under setting [10].
On to `Cn1c2c(c(=O)c3cc(O)ccc31)CC(O)C(C)(C)O2` (configuration not stated), for which the T/C under setting [11] was 102 % of control; the T/C under setting [12] was 94 % of control; the T/C (dose: 200.0 mg/kg/injection, schedule: Q01DX005 (ip), vehicle: Klucel (hydroxypropylcellulose) (HPC)) was 86 % of control.
`Cn1c[n+](C)nn1`: the T/C is 91 % of control (dose: 12.5 mg/kg/injection, schedule: Q01DX009 (ip), vehicle: saline); 97 % of control (dose: 25.0 mg/kg/injection, schedule: Q01DX009 (ip), vehicle: saline); 97 % of control under setting [7].
For `CN(C)c1ccc(/C=N/NC(N)=S)nc1`, for the setting “dose: 50.0 mg/kg/injection, schedule: Q04DX003 (ip), vehicle: saline with Tween-80”, the T/C was 150 % of control.
On to `N#CCCn1ncc(=O)[nH]c1=O`, for which the T/C (dose: 50.0 mg/kg/injection, schedule: Q01DX005 (ip), vehicle: water) is 101 % of control; the T/C (dose: 100.0 mg/kg/injection, schedule: Q01DX005 (ip), vehicle: water) was 104 % of control; the T/C (dose: 200.0 mg/kg/injection, schedule: Q01DX005 (ip), vehicle: water) is 107 % of control.
Turning to `O=C1c2ccccc2C(=O)N1CN1C(=O)c2ccccc2S1(=O)=O`, the T/C by setting is: under setting [11], 93 % of control; under setting [12], 98 % of control.
Consider `CCOC(=O)CC1=NC(=Nc2ccc(Cl)c(Cl)c2)SC1`, for which the T/C is, setting by setting: under setting [4], 103 % of control; under setting [5], 104 % of control; under setting [6], 100 % of control.
In the case of `Nc1ccc2c(c1)C1(CCC2)NC(=O)NC1=O` (configuration not stated), the T/C was 96 % of control under setting [13], 95 % of control under setting [14] and 105 % of control under setting [15].
For `C=C(C)C12CC(C)C34OC(CCCCCCCCC)(OC1C3C1OC1(CO)C(O)C1(O)C(=O)C(C)=CC14)O2` (configuration not stated), the T/C by setting is: (dose: 3.0 micrograms/kg/injection, schedule: Q01DX009 (ip), vehicle: saline + alcohol) 107 % of control; (dose: 5.0 micrograms/kg/injection, schedule: Q01DX009 (ip), vehicle: saline + alcohol) 109 % of control; (dose: 10.0 micrograms/kg/injection, schedule: Q01DX009 (ip), vehicle: saline + alcohol) 105 % of control; (dose: 20.0 micrograms/kg/injection, schedule: Q01DX009 (ip), vehicle: saline + alcohol) 109 % of control; (dose: 40.0 micrograms/kg/injection, schedule: Q01DX009 (ip), vehicle: saline + alcohol) 116 % of control.
For the compound `O=S(=O)(F)c1ncnc2nc[nH]c12`, the T/C is 93 % of control under setting [4], 103 % of control under setting [5] and 112 % of control under setting [6].
Consider `O=c1oc2cc(O)ccc2c2oc3ccccc3c12`, for which the T/C was 91 % of control (dose: 6.2 mg/kg/injection, schedule: Q01DX007 (ip), vehicle: carboxymethylcellulose (CMC)); 91 % of control (dose: 12.5 mg/kg/injection, schedule: Q01DX007 (ip), vehicle: carboxymethylcellulose (CMC)); 100 % of control (dose: 25.0 mg/kg/injection, schedule: Q01DX007 (ip), vehicle: carboxymethylcellulose (CMC)).
Regarding `O=C1OC2(CCCCC2)OC(=O)C1=Cc1ccc([N+](=O)[O-])s1`, the T/C by setting is: under setting [16], 114 % of control; under setting [17], 105 % of control.
Turning to `CC(C)C1CC(N(C)C)=CC(=S)N1` (configuration not stated), the T/C is, setting by setting: under setting [11], 106 % of control; under setting [12], 110 % of control; under setting [2], 93 % of control; under setting [3], 102 % of control.
Take `Cc1cc(C)c2c(=O)c3c(oc2c1)O[C@@](C)(CO)C[C@@H]3c1ccccc1`: the T/C by setting is: under setting [18], 101 % of control; under setting [19], 98 % of control; under setting [20], 106 % of control.
For the compound `CN1N=Cc2sc(Br)c(Br)c2B1O`, the T/C runs as follows: under setting [13], 94 % of control; under setting [14], 101 % of control; under setting [15], 94 % of control.
Take `COc1ccc(/C=C/C(C)=N/NC(N)=S)cc1OC`: the T/C by setting is: (dose: 12.5 mg/kg/injection, schedule: Q01DX005 (ip), vehicle: saline with Tween-80) 104 % of control; (dose: 25.0 mg/kg/injection, schedule: Q01DX005 (ip), vehicle: saline with Tween-80) 106 % of control; under setting [4], 105 % of control and 112 % of control; under setting [5], 93 % of control.
As for `CC(=O)NC(C)C(C)(C)O` (configuration not stated), the T/C is 96 % of control under setting [7]; 118 % of control under setting [8]; 105 % of control under setting [9]; 105 % of control (dose: 400.0 mg/kg/injection, schedule: Q01DX009 (ip), vehicle: saline).
As for `N#CC1C(=O)NC(=S)NC1c1ccc2c(c1)CCC2` (configuration not stated), the T/C by setting is: under setting [7], 100 % of control; under setting [8], 95 % of control; under setting [9], 94 % of control.
For `O=CC(O)C(O)C1[O][Sb][O]C1CO` (configuration not stated), the T/C is, setting by setting: under setting [1], 99 % of control; under setting [2], 100 % of control; under setting [3], 103 % of control.
Consider `COC(=O)Nc1cn2nc(C)sc2n1`, for which the T/C reads like this: under setting [18], 99 % of control; under setting [19], 94 % of control; under setting [20], 91 % of control.
As for `Cc1cc(=O)[nH]c2ccc3ccccc3c12`, the T/C is 91 % of control (dose: 12.5 mg/kg/injection, schedule: Q01DX005 (ip), vehicle: Klucel (hydroxypropylcellulose) (HPC)); 91 % of control (dose: 25.0 mg/kg/injection, schedule: Q01DX005 (ip), vehicle: Klucel (hydroxypropylcellulose) (HPC)); 86 % of control under setting [11].
For `CCOC(=O)C1C(c2cc(OC)c(OC)c(OC)c2)c2cc3c(cc2OC1(C)N1CCCC1)OCO3` (configuration not stated), the T/C reads like this: (dose: 60.0 mg/kg/injection, schedule: Q01DX005 (ip), vehicle: Klucel (hydroxypropylcellulose) (HPC)) 97 % of control; (dose: 120.0 mg/kg/injection, schedule: Q01DX005 (ip), vehicle: Klucel (hydroxypropylcellulose) (HPC)) 96 % of control; (dose: 240.0 mg/kg/injection, schedule: Q01DX005 (ip), vehicle: Klucel (hydroxypropylcellulose) (HPC)) 96 % of control.
Regarding `CP1(=O)CCC2=C1CCCC2` (configuration not stated), the T/C is 105 % of control under setting [16]; 107 % of control under setting [17]; 104 % of control (dose: 400.0 mg/kg/injection, schedule: Q04DX003 (ip), vehicle: saline with Tween-80).
`COCOc1c(C)ccc2c1CCC2`: the T/C under setting [10] is 91 % of control; the T/C (dose: 200.0 mg/kg/injection, schedule: Q04DX002 (ip), vehicle: saline with Tween-80) was 97 % of control; the T/C (dose: 400.0 mg/kg/injection, schedule: Q04DX002 (ip), vehicle: saline with Tween-80) was 95 % of control.
Regarding `CCCOC1NC(=O)Oc2ccccc21` (configuration not stated), the T/C reads like this: under setting [18], 101 % of control and 104 % of control and 106 % of control; under setting [19], 104 % of control and 111 % of control and 117 % of control; under setting [20], 114 % of control and 117 % of control.
On to `CC(C)N1CC(CCN2CCOCC2)C(c2ccccc2)(C2CCCC2)C1=O` (configuration not stated), for which the T/C runs as follows: (dose: 50.0 mg/kg/injection, schedule: Q01DX009 (ip), vehicle: Klucel (hydroxypropylcellulose) (HPC)) 106 % of control; (dose: 100.0 mg/kg/injection, schedule: Q01DX009 (ip), vehicle: Klucel (hydroxypropylcellulose) (HPC)) 101 % of control; (dose: 200.0 mg/kg/injection, schedule: Q01DX009 (ip), vehicle: Klucel (hydroxypropylcellulose) (HPC)) 108 % of control.

(Values after PubChem BioAssay AID330 (DTP/NCI, 2004).)
